Data from paper PMC3254257 (Bioconjugate Chemistry, 2011).

Columns and labels:
[1] = Stability in serum; format: in vitro ADME, bovine; settings: 37°C; for relative serum stability: 100% FBS, 10 h
[2] = Tetrazine cycloaddition kinetics with norbornene; format: physicochemical; settings: PBS pH 7.4, 37°C, 5% DMSO, excess NB
[3] = Tetrazine cycloaddition kinetics with TCO; format: physicochemical; settings: among tetrazines of this study
[4] = Aqueous solubility; format: physicochemical; settings: water

Structure (SMILES)	relative serum stability [1]	cycloaddition kinetics with NB compared to hydrogen substituted tetrazine 1 [2]	relative cycloaddition kinetics with TCO [3]	aqueous solubility [4]	time to formation of a precipitate in FBS ([1]; FBS, serum stability could not be measured)
Cl.NCc1ccc(-c2nnc(-c3ncccn3)nn2)cc1 [Tetrazine 4, (4-(6-(Pyrimidin-2-yl)-1,2,4,5-tetrazin-3-yl)phenyl)methanamine hydrochloride]	least stable	faster kinetics	–	–	–
Cc1nnc(CCCCCN)nn1.Cl [Tetrazine 6, 5-(6-Methyl-1,2,4,5-tetrazin-3-yl)pentan-1-amine hydrochloride]	best serum stability	slower cycloaddition reactions	slowest reaction kinetics	extremely water soluble	–
Cl.NCc1ccc(-c2nnc(-c3ccccn3)nn2)cc1 [Tetrazine 3, (4-(6-(Pyridin-2-yl)-1,2,4,5-tetrazin-3-yl)phenyl)methanamine hydrochloride]	–	–	–	–	1.5 to 2 h
c1ccc(-c2nnc(-c3ccccc3)nn2)cc1 [3,6-diphenyl tetrazine, reference compound]	–	–	–	not soluble to any measurable amount	–
